The values below come from patent US9447028B2, “Therapeutic aryl-amido-aryl compounds and their use” (King's College London, priority 2009, dated 2016).

Type in all cases: cell-based
One assay deals with T1, RARα (Homo sapiens, UniProt P10276).
T1 construct: gal4 (fusion partner); expressed in transfected cells; host or cells: COS-7
T1 sequence (P10276 183-417 limits assumed): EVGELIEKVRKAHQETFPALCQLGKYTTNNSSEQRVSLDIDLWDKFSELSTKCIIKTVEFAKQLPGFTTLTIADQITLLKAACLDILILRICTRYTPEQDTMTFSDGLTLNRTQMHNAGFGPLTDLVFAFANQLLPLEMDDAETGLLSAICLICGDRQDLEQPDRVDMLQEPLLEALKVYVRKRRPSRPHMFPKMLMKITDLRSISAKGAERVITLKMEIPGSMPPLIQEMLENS
The assay is described as follows: Transactivation assay for RAR alpha (gal4-RAR fusion, luciferase reporter, COS-7 cells). To be noted: for RARα/RARβ ratio (*): fold-selectivity for RARα over RARβ; for RARα activity ratio: ratio of test compound EC50 to that of atRA on the same plate. Here is the method: (§1) Transcriptional transactivation assays were performed with gal4 fusion receptor constructs, created using each of the RAR ligand binding domains, co-transfected with the pFR-luc (Stratagene™) reporter construct in COS-7 cells.
(§2) Briefly, on day 1, 96 well plates were seeded with 8000 cells per well then left to recover overnight. On day 2, the cells were co-transfected with 100 ng of reporter plasmid and 10 ng of the appropriate receptor plasmid per well using lipofectamine (Invitrogen™). On day 3, the lipofectamine containing media was replaced by a DMEM without phenol red, followed by the addition of test compound dissolved in 1 μL of DMSO to each well's 100 μL total volume. Finally, on day 4, the cells were lysed and their luciferase substrate was provided by the BrightGlo™ reagent (Promega™), the plates were then read on the MicroBeta TriLux™ (Perkin Elmer™).
(§3) Where replicate data has been generated, the data are quoted as a ratio of the mean EC50 from the separate experiments.
(A reporter such as luciferase makes a cellular process visible.)

Another assay concerns the target T2, RARβ (Homo sapiens, UniProt P10826).
T2 construct: gal4 (fusion partner); expressed in transfected cells; host or cells: COS-7
T2 sequence (P10826 183-417 limits assumed): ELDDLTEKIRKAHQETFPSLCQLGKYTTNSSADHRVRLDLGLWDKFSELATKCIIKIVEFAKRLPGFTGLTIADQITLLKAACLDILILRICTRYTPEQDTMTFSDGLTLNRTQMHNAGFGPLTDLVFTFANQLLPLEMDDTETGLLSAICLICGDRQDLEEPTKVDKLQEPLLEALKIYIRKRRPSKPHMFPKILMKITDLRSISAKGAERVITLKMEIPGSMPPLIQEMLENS
Kind of assay: Transactivation assay for RAR beta (gal4-RAR fusion, luciferase reporter, COS-7 cells). As to conditions: ratio of test compound EC50 to that of atRA; inactive = no agonist action at the highest concentration tested. Here is the method:
as §1, §2, §3

A further assay deals with T3, RARγ (Homo sapiens, UniProt P13631).
T3 construct: gal4 (fusion partner); expressed in transfected cells; host or cells: COS-7
T3 sequence (P13631 185-419 limits assumed): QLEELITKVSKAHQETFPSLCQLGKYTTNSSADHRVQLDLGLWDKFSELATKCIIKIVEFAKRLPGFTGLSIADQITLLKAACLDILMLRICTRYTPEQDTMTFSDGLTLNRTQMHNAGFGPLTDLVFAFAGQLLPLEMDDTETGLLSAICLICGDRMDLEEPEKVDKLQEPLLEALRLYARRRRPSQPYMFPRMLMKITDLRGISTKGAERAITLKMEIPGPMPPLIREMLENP
The assay is described as follows: Transactivation assay for RAR gamma (gal4-RAR fusion, luciferase reporter, COS-7 cells). As to conditions: ratio of test compound EC50 to that of atRA; inactive = no agonist action at the highest concentration tested. Here is the method: as §1, §2, §3

Consider `CCOc1cc(C(=O)Nc2ccc(C(=O)O)cc2)cc(Cl)c1OC(C)C` [AAA-086, 4-(3-Chloro-5-ethoxy-4-isopropoxybenzamido)benzoic acid], for which, at RARα, the “RARα/RARβ ratio (*)” value is given as 3.1 and the RARα activity ratio is recorded as 2.1. Further, at RARβ, the RARβ activity ratio stood at 7. Moreover, the RARγ activity ratio at RARγ came to 1203.
The matching figures for `CCOc1c(Cl)cc(C(=O)Nc2ccc(C(=O)O)c(C)c2)cc1OC` [AAA-085, 4-(3-Chloro-4-ethoxy-5-methoxybenzamido)-2-methylbenzoic acid]: 210, 33, 6923 and above 8300.
For the compound `Cc1cc(NC(=O)c2cc(Cl)c(OC3CCC3)c(OC3CCC3)c2)ccc1C(=O)O` [AAA-093, 4-(3-Chloro-4,5-di(cyclobutyloxy)benzamido)-2-methylbenzoic acid], on RARα, the “RARα/RARβ ratio (*)” value was found to be 46 and the RARα activity ratio was determined as 2.0. Further, the RARβ activity ratio at RARβ came to 92. Besides, the RARγ activity ratio at RARγ was 10833.
In the case of `O=C(O)c1ccc(NC(=O)c2cc(Cl)c(OC3CCC3)c(Cl)c2)cc1` [AAA-011, 4-(3,5-Dichloro-4-cyclobutoxybenzamido)benzoic acid], on RARα (compared with XXX-03), the “Improvement (RARα activity ratio)” value is listed as ~2.6-fold and the “Improvement (RARα/RARβ ratio)” value is on record as ~12-fold. Further, the RARβ activity ratio at RARβ worked out at 2960. Also, on RARγ, the RARγ activity ratio worked out at 21800.
Take `COc1c(Cl)cc(C(=O)Nc2ccc(C(=O)O)c(C)c2)cc1OC(C)C` [AAA-075, 4-(3-Chloro-5-isopropoxy-4-methoxybenzamido)-2-methylbenzoic acid]: on RARα, the “RARα/RARβ ratio (*)” value was 241 and the RARα activity ratio stood at 4.7. Further, the RARβ activity ratio on RARβ turned out to be 1134. Moreover, on RARγ, the RARγ activity ratio stood at 2394.
The matching figures for `CCOc1c(Br)cc(NC(=O)c2ccc(C(=O)O)cc2)cc1Br` [AAA-014, 4-(3,5-Dibromo-4-ethoxyphenylcarbamoyl)benzoic acid]: 23.3, 58, 1350 and “inactive”.
Taken in the same sequence, the figures for `CCOc1cc(C(=O)Nc2ccc(C(=O)O)c(C)c2)cc(OCC)c1Br` [AAA-110, 4-(4-Bromo-3,5-diethoxybenzamido)-2-methylbenzoic acid] were 120, 16, 1921 and above 12000.
Turning to `CCOc1cc(C(=O)Nc2ccc(C(=O)O)c(C)c2)cc(OC(CC)CC)c1Cl` [AAA-115, 4-(4-Chloro-3-ethoxy-5-(pentan-3-yloxy)benzamido)-2-methylbenzoic acid], on RARα, the “RARα/RARβ ratio (*)” value amounted to 58 and the RARα activity ratio turned out to be 2.6. For the same compound, the RARβ activity ratio on RARβ is 150. In addition, at RARγ, the RARγ activity ratio is reported as 25172.
Taken in the same sequence, the figures for `COc1c(Cl)cc(C(=O)Nc2ccc(C(=O)O)c(F)c2)cc1OC(C)C` [AAA-077, 4-(3-Chloro-5-isopropoxy-4-methoxybenzamido)-2-fluorobenzoic acid] were 609, 6.7, 4082 and 117857.
Taken in the same sequence, the figures for `CCOc1c(Cl)cc(C(=O)Nc2ccc(C(=O)O)nn2)cc1OC(C)C` [AAA-082, 6-(3-Chloro-4-ethoxy-5-isopropoxybenzamido)pyridazine-3-carboxylic acid] were 275, 25, 6885 and above 56000.
The matching figures for `CC(C)Oc1cc(C(=O)Nc2ccc(C(=O)O)cc2)cc(OC(C)C)c1OC(C)C` [AAA-059, 4-(3,4,5-Triisopropoxybenzamido)benzoic acid]: 96, 27, 2600 and 225.
For the compound `CCOc1c(Cl)cc(C(=O)Nc2ccc(C(=O)O)c(C)c2)cc1OC1CCC1` [AAA-096, 4-(3-Chloro-5-(cyclobutoxy)-4-ethoxybenzamido)-2-methylbenzoic acid], at RARα, the “RARα/RARβ ratio (*)” value is 67 and the RARα activity ratio was 3.2. Further, the RARβ activity ratio on RARβ is reported as 215. At RARγ, the RARγ activity ratio turned out to be 7895.
On to `CCOc1c(Cl)cc(C(=O)Nc2ccc(C(=O)O)c(F)c2)cc1Cl` [AAA-007, 4-(3,5-Dichloro-4-ethoxybenzamido)-2-fluorobenzoic acid], for which, at RARβ, the RARβ activity ratio was 2010. In addition, on RARγ, the RARγ activity ratio entry was “inactive”.
`O=C(O)c1ccc(NC(=O)c2cc(Cl)cc(Cl)c2)cc1` [XXX-03, 4-(3,5-Dichlorobenzamido)benzoic acid, reference compound]: at RARα, the “RARα/RARβ ratio (*)” value turned out to be 7.1 and the RARα activity ratio is reported as 90. At RARβ, the RARβ activity ratio is recorded as 642. In addition, the RARγ activity ratio entry on RARγ was “inactive”.
Taken in the same sequence, the figures for `CC(C)Oc1cc(C(=O)Nc2ccc(C(=O)O)c(F)c2)cc(OC(C)C)c1Br` [AAA-108, 4-(4-Bromo-3,5-diisopropoxybenzamido)-2-fluorobenzoic acid] were 338, 5.1, 1727 and 32500.
With `CCOc1ccc(C(=O)Nc2cc(F)c(C(=O)O)c(F)c2)cc1C(F)(F)F` [XXX-02, 4-(4-Ethoxy-3-(trifluoromethyl)benzamido)-2,6-difluorobenzoic acid, reference compound], the RARα activity ratio on RARα worked out at 2242.
As to `CCOc1c(Br)cc(C(=O)Nc2ccc(C(=O)O)cc2)cc1Br` [AAA-023, 4-(3,5-Dibromo-4-ethoxybenzamido)benzoic acid], on RARβ, the RARβ activity ratio is recorded as 404. Further, the RARγ activity ratio at RARγ is on record as 62370.
In the case of `CCOc1c(F)cc(NC(=O)c2ccc(C(=O)O)cc2)cc1F` [AAA-021, 4-(4-Ethoxy-3,5-difluorophenylcarbamoyl)benzoic acid], at RARα, the RARα activity ratio came to 760.
Turning to `CCOc1c(Cl)cc(C(=O)Nc2ccc(C(=O)OC)c(Cl)c2)cc1Cl` [AAA-017, Methyl 4-(3,5-dichloro-4-ethoxybenzamido)-2-chlorobenzoate], at RARα, the “RARα/RARβ ratio (*)” value is reported as above 500 and the RARα activity ratio stood at 140. The RARβ activity ratio result at RARβ is “inactive”.
With `CCOc1c(Cl)cc(C(=O)Nc2ccc(C(=O)O)cn2)cc1Cl` [AAA-027, 6-(3,5-Dichloro-4-ethoxybenzamido)nicotinic acid], at RARα, the “RARα/RARβ ratio (*)” value is above 5 and the RARα activity ratio is reported as 260. Besides, the RARβ activity ratio entry at RARβ was “inactive”.
Taken in the same sequence, the figures for `COc1c(Cl)cc(C(=O)Nc2ccc(C(=O)O)c(F)c2)cc1C(F)(F)F` [AAA-066, 4-(3-Chloro-4-methoxy-5-(trifluoromethyl)benzamido)-2-fluorobenzoic acid] were 236, 32 and 7558.
`CCOc1c(Cl)cc(C(=O)Nc2ccc(C(N)=O)cc2)cc1Cl` [AAA-016, N-(4-Carbamoylphenyl)-3,5-dichloro-4-ethoxybenzamide]: on RARα, the RARα activity ratio was found to be 500.
For the compound `CCOc1c(C(F)(F)F)cc(NC(=O)c2ccc(C(=O)O)cc2)cc1C(F)(F)F` [AAA-015, 4-(4-Ethoxy-3,5-bis(trifluoromethyl)phenylcarbamoyl)benzoic acid], the RARβ activity ratio on RARβ is reported as 540. Besides, the RARγ activity ratio entry on RARγ is “inactive”.
For the compound `COc1cc(C(=O)Nc2ccc(C(=O)O)cc2)cc(Cl)c1OC1CCCC1` [AAA-006, 4-(3-Chloro-4-(cyclopentyloxy)-5-methoxybenzamido)benzoic acid], the RARβ activity ratio on RARβ is listed as 1054. On RARγ, the RARγ activity ratio is 5840.
The matching figures for `CCOc1cc(C(=O)Nc2ccc(C(=O)O)cc2)cc(OC(C)C)c1OCC` [AAA-009, 4-(3,4-Diethoxy-5-isopropoxybenzamido)benzoic acid]: 2450 and 960.
